Measurements from patent US5789404A, “3-substituted 1-arylindole compounds” (H. Lundbeck A/S, priority 1993, dated 1998).
Counter-ions that a name gives are not always drawn.

Assays:
[1] = biological target: T1, 5-HT2 receptors (Rattus norvegicus, UniProt P14842); experiment: Inhibition of ^3 H-Ketanserin Binding to 5-HT2 Receptors in Rat Cortex in vitro; conditions: ^3 H-Ketanserin 0,5 nM; rat cortex membranes; read-out: 5-HT2 binding ^3 H ketanserin, IC50
T1 construct: 5-HT2 Receptors in Rat Cortex in vitro; from tissue; host or cells: rat cortex membranes
Method: Inhibition of ^3 H-Ketanserin Binding to 5-HT2 Receptors in Rat Cortex in vitro
By this method the inhibition by drugs of the binding of ^3 H-Ketanserin (0,5 nM) to 5-HT2 receptors in membranes from rat is determined in vitro. The method is described in Hyttel, Pharmacol. & Toxicol.

[2] = biological target: dopamine D2 receptors (Rattus norvegicus, UniProt P61169); experiment: biochemical; type: binding; conditions: read-out: Dopamin D2 binding ^3 H spiroperidol, IC50
Method: Inhibition of ^3 H-Spiroperidol Binding to Dopamine D2 Receptors in Rat Corpus Striatum in vitro
By this method the inhibition by drugs of the binding of ^3 H-spiroperidol (0.5 nM) to dopamine D2 receptors in membranes from rat corpus striatum is determined in vitro.

[3] = in vivo; cited from earlier work
[4] = in vivo; cited from earlier work; remark: listed apart in the source
[5] = in vivo; cited from earlier work; remark: listed apart in the source
[6] = in vivo; cited from earlier work; remark: listed apart in the source
[7] = in vivo; cited from earlier work; remark: listed apart in the source

T1 sequence (P14842 whole entry): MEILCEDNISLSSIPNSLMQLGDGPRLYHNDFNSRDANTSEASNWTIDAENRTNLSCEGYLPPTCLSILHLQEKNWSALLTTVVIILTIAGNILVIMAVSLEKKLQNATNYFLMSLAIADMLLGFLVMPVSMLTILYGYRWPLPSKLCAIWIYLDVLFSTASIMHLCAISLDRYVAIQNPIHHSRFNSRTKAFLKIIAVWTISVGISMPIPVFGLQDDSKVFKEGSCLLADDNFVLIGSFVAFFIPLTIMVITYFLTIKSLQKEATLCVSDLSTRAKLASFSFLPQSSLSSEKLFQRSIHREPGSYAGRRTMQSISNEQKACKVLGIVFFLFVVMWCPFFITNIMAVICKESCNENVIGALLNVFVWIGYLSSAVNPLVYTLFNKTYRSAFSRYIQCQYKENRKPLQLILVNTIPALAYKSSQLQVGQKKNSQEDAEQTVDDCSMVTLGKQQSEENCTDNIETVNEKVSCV
Chain of dopamine D2 receptors (P61169 whole entry): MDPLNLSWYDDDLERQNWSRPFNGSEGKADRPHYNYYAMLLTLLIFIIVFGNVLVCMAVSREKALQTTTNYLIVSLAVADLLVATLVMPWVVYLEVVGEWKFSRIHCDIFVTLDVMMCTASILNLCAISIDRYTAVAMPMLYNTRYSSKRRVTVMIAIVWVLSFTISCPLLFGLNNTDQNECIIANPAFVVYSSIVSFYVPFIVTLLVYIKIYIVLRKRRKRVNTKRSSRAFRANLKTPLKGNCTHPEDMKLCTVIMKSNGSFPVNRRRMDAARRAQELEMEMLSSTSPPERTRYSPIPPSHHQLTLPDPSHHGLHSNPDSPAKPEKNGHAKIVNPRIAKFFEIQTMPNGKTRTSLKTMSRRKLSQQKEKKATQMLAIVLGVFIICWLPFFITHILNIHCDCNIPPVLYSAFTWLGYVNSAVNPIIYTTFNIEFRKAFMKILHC

SMILES	IC50 [1]	IC50 [2]	quality of sleep [3]	abuse of alcohol and drugs [4]	neuroleptic-induced parkinsonism [5]	effects in an animal test indicative of anxiolytic drug activity [6]	antidepressant effect / depressive symptoms of schizophrenia [7]
CN(C)CCOc1cn(-c2ccc(F)cc2)c2ccc(Br)cc12 [Compound 16a, N,N-Dimethyl-2-[5-bromo-1-(4-fluorophenyl)-1H-indol-3-yloxy]ethylamine, Hydrochloride]	7 nM	6.2 nM					
CN(C)CCOc1cn(-c2ccc(F)cc2)c2ccc(C#N)cc12 [Compound 17a, N,N-Dimethyl-2-[5-cyano-1-(4-fluorophenyl)-1H-indol-3-yloxy]ethylamine, Hydrochloride]	21 nM	0.98 nM					
Cc1nc2sccn2c(=O)c1CCN1CCC(=C(c2ccc(F)cc2)c2ccc(F)cc2)CC1 [ritanserin]			improve the quality of sleep	reduce abuse of alcohol and drugs	relieve neuroleptic-induced parkinsonism	exert effects in an animal test indicative of anxiolytic drug activity	shown to be an antidepressant and to improve depressive symptoms of schizophrenia
